Assays:
human VPAC2 receptor = target: T1, human VPAC2 receptor (Homo sapiens, UniProt P41587); assay: cAMP stimulation in CHO cells expressing VPAC2; type: cell-based
T1 construct: expressed in transfected cells; host or cells: CHO cells (G418 selection)
T1 sequence (P41587 24-438): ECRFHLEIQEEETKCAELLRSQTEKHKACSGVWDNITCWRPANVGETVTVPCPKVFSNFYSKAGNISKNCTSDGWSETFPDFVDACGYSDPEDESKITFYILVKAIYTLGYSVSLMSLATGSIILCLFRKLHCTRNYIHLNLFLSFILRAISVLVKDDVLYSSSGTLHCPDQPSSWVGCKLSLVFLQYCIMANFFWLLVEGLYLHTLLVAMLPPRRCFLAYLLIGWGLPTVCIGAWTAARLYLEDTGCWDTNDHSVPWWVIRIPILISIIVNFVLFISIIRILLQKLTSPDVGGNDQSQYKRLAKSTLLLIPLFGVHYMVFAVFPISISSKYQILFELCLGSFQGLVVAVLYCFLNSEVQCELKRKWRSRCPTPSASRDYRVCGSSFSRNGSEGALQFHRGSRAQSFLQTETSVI
Method in brief: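 Serum-starved CHO cells expressing human receptors were pre-treated 20 min with 500 μM IBMX, then exposed to agonist concentration curves for 10 min in 500 μM IBMX. cAMP quantified by competition with bovine PKA and ^3H-cAMP (1 h, room temperature), scintillation read.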

[1] = test system: C57BL/6 mice, diffuse TBI; assay: Novel object recognition after TBI; type: in vivo, mouse; conditions: 10 mg/kg i.p. 30 min prior to TBI, 14 DPI
Procedure: (§1) 30 min prior to TBI or sham injury, mice were randomly assigned to a therapeutic group and received an intraperitoneal injection of 2LS80Mel (10 mg/kg) or sterile saline (0.25 ml). Groups were as follows: TBI-2LS80Mel n = 17; TBI-vehicle n = 17; sham n = 22 (vehicle n = 11, 2LS80Mel n = 11).
For injury induction 24 h post-surgery, mice were re-anesthetized with 5% isoflurane delivered for 3 min. The cap was removed from the injury-hub assembly and the dura was visually inspected through the hub to ensure it was intact with no debris. […] Injured mice were monitored for presence of a forearm fencing response and righting reflex times were recorded as indicators of injury severity ([Hosseini and Lifshitz, 2009]). […] After spontaneously righting, mice were placed in a heated recovery cage and monitored until they were ambulatory (approximately 5–15 min) before being returned to their piezoelectric sleep cage (see below). […]
Cognitive impairment was tested at 14 DPI using the novel object recognition (NOR) test as previously published ([Rowe et al., 2014b]; [Harrison et al., 2015]; [Saber et al., 2021]). […] For testing, the times spent actively investigating the novel and familiar object were quantified. […] If an animal climbed onto an object and sniffed into the air, this time was not calculated into the exploration of the novel object.

[2] = test system: C57BL/6 mice, diffuse TBI; assay: Plasma cytokine measurement after TBI; type: in vivo, mouse; conditions: 10 mg/kg i.p. 30 min prior to TBI
Procedure: as §1
For injury induction 24 h post-surgery, mice were re-anesthetized with 5% isoflurane delivered for 3 min. The cap was removed from the injury-hub assembly and the dura was visually inspected through the hub to ensure it was intact with no debris. The hub was then filled with normal saline and attached to an extension tube connected to the male end of the fluid percussion device (Custom Design and Fabrication, Virginia Commonwealth University, Richmond, VA). An injury of moderate severity for our injury model (1.4 atm) was administered by releasing the pendulum onto the fluid-filled cylinder following the return of a toe-pinch response. Sham mice underwent the same procedure except the pendulum was not released. Injured mice were monitored for presence of a forearm fencing response and righting reflex times were recorded as indicators of injury severity ([Hosseini and Lifshitz, 2009]). The righting reflex time is the total time from the initial impact until the mouse spontaneously rights itself from a supine position. The fencing response is a tonic posturing characterized by extension and flexion of opposite arms that has been validated as an overt indicator of injury severity ([Hosseini and Lifshitz, 2009]). The injury hub was removed, and the brain was inspected for uniform herniation and integrity of the dura. The incision was cleaned with saline and closed using sutures. Moderately brain-injured mice had righting reflex recovery times greater than 4 min and a positive fencing response. Righting reflex times for TBI-2LS80Mel mice were 477.13 ± 83.13 s and the righting reflex times for TBI-vehicle mice were 417.05 ± 107.47 s. […] After spontaneously righting, mice were placed in a heated recovery cage and monitored until they were ambulatory (approximately 5–15 min) before being returned to their piezoelectric sleep cage (see below). […]
Approximately 75 μl of blood were centrifuged to collect approximately 40 μl of plasma from each animal at 2 and 14 days post-injury ([Saber et al., 2020]). Multiplex cytokine assays (MILLIPLEX MAP Mouse Cytokine/Chemokine Magnetic Bead Panel, Millipore Sigma, Burlington, MA) quantified interleukin (IL)-1β, IL-6, and tumor necrosis factor (TNF)-α in peripheral blood. […] Fluorescent intensity was measured on a Bio-Plex® 200 system (Bio-Rad Laboratories, Hercules, CA) and corresponded to the concentration of each analyte in plasma samples. Duplicate values were averaged and analyzed between groups. […]

| Compound | EC50 (human VPAC2 receptor) | Emax (human VPAC2 receptor; CHO) | Receptor selectivity ratio VPAC2/PAC1 (human VPAC2 receptor; ratio of cAMP EC50 values) | Receptor selectivity ratio VPAC2/VPAC1 (human VPAC2 receptor; ratio of cAMP EC50 values) | Novel object recognition (cognitive deficits) [1] | Plasma IL-1β ([2]; 2 DPI) | Plasma IL-6 ([2]; 2 DPI) | Plasma TNF-α ([2]; 2 DPI) | Peripheral cytokines (IL-1β, IL-6, TNF-α) ([2]; 14 DPI, data not shown) |
| --- | --- | --- | --- | --- | --- | --- | --- | --- | --- |
| [2H]C([2H])([2H])C([2H])(C([2H])([2H])[2H])[C@]([2H])(NC(=O)[C@H](C)NC(=O)[C@H](C)NC(=O)[C@H](CC(C)C)NC(=O)[C@H](Cc1ccc(O)cc1)NC(=O)[C@H](CCCCN)NC(=O)[C@H](CCCCN)NC(=O)[C@@]([2H])(NC(=O)[C@H](C)NC(=O)[C@H](CC(C)C)NC(=O)[C@H](CCC(N)=O)NC(=O)[C@H](CCCCN)NC(=O)[C@H](CCCNC(=N)N)NC(=O)[C@H](Cc1ccc(O)cc1)NC(=O)[C@H](CCCNC(=N)N)NC(=O)[C@H](CO)NC(=O)[C@H](Cc1ccc(O)cc1)NC(=O)[C@H](CO)NC(=O)[C@H](CC(=O)O)NC(=O)[C@@H](NC(=O)[C@H](Cc1ccccc1)NC(=O)[C@@H](NC(=O)CNC(=O)[C@H](CC(=O)O)NC(=O)[C@H](CO)NC(=O)[C@@H](N)Cc1c[nH]cn1)[C@@H](C)CC)[C@@H](C)O)C([2H])(C([2H])([2H])[2H])C([2H])([2H])[2H])C(=O)N[C@@H](CC(C)C)C(=O)N[C@@H](CO[C@@H]1O[C@H](CO)[C@@H](O[C@@H]2O[C@H](CO)[C@H](O)[C@H](O)[C@H]2O)[C@H](O)[C@H]1O)C(N)=O [Compound 2LS98Lac] | 193 nM | 100% | 268.06 | 428.89 |  |  |  |  |  |
| CC[C@H](C)[C@H](NC(=O)CNC(=O)[C@H](CC(=O)O)NC(=O)[C@H](CO)NC(=O)[C@@H](N)Cc1c[nH]cn1)C(=O)N[C@@H](Cc1ccccc1)C(=O)N[C@H](C(=O)N[C@@H](CC(=O)O)C(=O)N[C@@H](CO)C(=O)N[C@@H](Cc1ccc(O)cc1)C(=O)N[C@@H](CO)C(=O)N[C@@H](CCCNC(=N)N)C(=O)N[C@@H](Cc1ccc(O)cc1)C(=O)N[C@@H](CCCNC(=N)N)C(=O)N[C@@H](CCCCN)C(=O)N[C@@H](CCC(N)=O)C(=O)N[C@@H](CC(C)C)C(=O)N[C@@H](C)C(=O)N[C@H](C(=O)N[C@@H](CCCCN)C(=O)N[C@@H](CCCCN)C(=O)N[C@@H](Cc1ccc(O)cc1)C(=O)N[C@@H](CC(C)C)C(=O)N[C@@H](C)C(=O)N[C@@H](C)C(=O)N[C@H](C(=O)N[C@@H](CC(C)C)C(=O)N[C@@H](CO[C@@H]1O[C@H](CO[C@H]2O[C@H](CO)[C@H](O)[C@H](O)[C@H]2O)[C@@H](O)[C@H](O)[C@H]1O)C(N)=O)C(C)C)C(C)C)[C@@H](C)O [Compound 2LS80Mel] |  |  |  |  | no TBI-induced cognitive deficits among any group | no differences | no differences | no differences | no differences |
